Here are results for two molecules from patent US20240335381A1, “Transdermal Microemulsion Delivery Systems for Alcohol-Soluble Species Including Nonderivatized Hormones” (Quicksilver Scientific, Inc., priority 2021, published 2024).

Molecules are shown by their SMILES. Values after ≈ are worked out from the molar mass of the structure shown. Read-outs that look alike come from different tables or passages of the source.

The conditions of data set [1]: cited from earlier work.
Data set [2] in a line: Solubility in ethanol and in MCT oil. Type of data set: physicochemical. The text has this:
An alcohol-soluble species is a species that is insoluble in water and has a greater solubility in ethanol than in medium chain triglyceride (MCT) oils. […] Alcohol-soluble species are preferably pharmacologically active, more preferably are a drug or a supplement, and neither include nor are water. Thus, liquids and solids may exist that technically are soluble in alcohol, but because they also are soluble in water or more or equivalently soluble in MCT oils than in ethanol are not “alcohol-soluble species”.
Solubilized means that the alcohol-soluble species to be delivered is in the solution of the droplet. […] Thus, if either average particle diameters greater than 200 nm or precipitated crystals visible to the naked eye form, the alcohol-soluble species is not solubilized in the solution of the droplet. If an alcohol-soluble species is not solubilized in the solution, it is insoluble in the solution. In many respects, solubility may be thought of as a concentration dependent continuum. For example, the following descriptive terms may be used to express solubility of a solute in a solvent (grams solid/mL of solvent) at 25 degrees Celsius: […]

For `C[C@]12CC[C@H]3[C@@H](CCC4=CC(=O)CC[C@@]43C)[C@@H]1CC[C@@H]2O` [testosterone], the “time within which the remainder is metabolized from the blood” value in data set [1] (after introduction) was “three”. Besides, the “share metabolized from the blood” value in data set [1] (within the first hour of introduction) was “about 90%”.

By solubility is commonly meant the dissolved amount per volume that the medium holds. In the case of `C[C@]12CC[C@H](O)CC1=CC[C@@H]1[C@@H]2CC[C@]2(C)C(=O)CC[C@@H]12` [DHEA, dehydroepiandrosterone (3-beta-hydroxyandrosteron-5-en-17-one)], the “solubility level in MCT oil” value in data set [2] (MCT oil) is “sparingly soluble”. For the same molecule, the “solubility level in ethanol” value in data set [2] (ethanol) is on record as “freely soluble”. The solubility in data set [2] (ethanol, organic solvent or mixture, read-out: solubility in ethanol) was approximately 150 mg/mL (≈ 520 mM); in data set [2] (medium chain triglyceride (MCT) oil, oil or lipid, MCT oil, read-out: solubility in MCT oil), approximately 10 mg/mL (≈ 34.7 mM).
